Test: wn = mass fraction of the nth substance listed
Conditions: 101 kPa, Liquid, w1 = 0.321; for electrical conductivity: Phywe conductometer; for mass density: Vibrating tube method

CCN(CC)CC [triethylamine] + O
Conditions	electrical conductivity [S/m]	mass density [kg/m3]
284.65 K	0.04696	935.6
285.14 K	0.04816	935.2
285.64 K	0.04926	934.7
286.14 K	0.05046	934.2
286.65 K	0.05156	933.7
287.14 K	0.05276	933.1
287.65 K	0.05396	932.5
288.09 K	0.05496	932
288.59 K	0.05616	931.4
288.89 K	0.05676	931
289.14 K	0.05736	930.7
289.42 K	0.05806	930.3
289.65 K	0.05856	930
289.91 K	0.05916	929.6
290.15 K	0.05976	929.3
290.33 K	0.06026	929
290.44 K	0.06056	928.9
290.55 K	0.06076	928.7
290.65 K	0.06106	928.6
290.75 K	0.06136	928.4
290.84 K	0.06166	928.3
290.94 K	0.06196	928.2
291.05 K	0.06226	928
291.15 K	0.06256	927.8
291.19 K	0.06276	927.8
291.24 K	0.06286	927.7
291.29 K	0.06306	927.6
291.34 K	0.06326	927.5
291.39 K	0.06346	927.5
